Experimental data: ChEMBL document CHEMBL3046438, “Synthesis and Cytotoxic Evaluation of 1,2,3-Trisubstituted 2-(2-Oxoalkyl)-2,3-dihydrobenzimidazoles” (Med Chem Res, 2005)

Experiments:
RD [1] = test: Cytotoxicity against Homo sapiens (human) RD cells assessed as cell viability at 10^-4 M after 72 hr by trypan blue exclusion assay relative to control; format: functional; conditions: read-out: Activity
RD [2] = test: Cytotoxicity against Homo sapiens (human) RD cells assessed as cell viability at 10^-4 M after 96 hr by trypan blue exclusion assay relative to control; format: functional; conditions: read-out: Activity
RD [3] = test: Cytotoxicity against Homo sapiens (human) RD cells assessed as cell viability at 10^-4 M after 48 hr by trypan blue exclusion assay relative to control; format: functional; conditions: read-out: Activity
A2058 [4] = test: Cytotoxicity against Homo sapiens (human) A2058 cells assessed as cell viability at 10^-4 M after 96 hr by trypan blue exclusion assay relative to control; format: functional; conditions: A2058, 96 h, read-out: Activity
A2058 [5] = test: Cytotoxicity against Homo sapiens (human) A2058 cells assessed as cell viability at 10^-4 M after 72 hr by trypan blue exclusion assay relative to control; format: functional; conditions: A2058, 72 h, read-out: Activity
A2058 [6] = test: Cytotoxicity against Homo sapiens (human) A2058 cells assessed as cell viability at 10^-4 M after 48 hr by trypan blue exclusion assay relative to control; format: functional; conditions: A2058, 48 h, read-out: Activity
A2058 [7] = test: Cytotoxicity against Homo sapiens (human) A2058 cells assessed as cell viability at 10^-4 M after 24 hr by trypan blue exclusion assay relative to control; format: functional; conditions: A2058, 24 h, read-out: Activity
[8] = Cytotoxicity against Homo sapiens (human) FL cells assessed as cell viability at 10^-4 M after 96 hr by trypan blue exclusion assay relative to control; format: cell-based; conditions: read-out: Activity
RD [9] = test: Cytotoxicity against Homo sapiens (human) RD cells assessed as cell viability at 10^-4 M after 24 hr by trypan blue exclusion assay relative to control; format: functional; conditions: read-out: Activity
[10] = Cytotoxicity against Homo sapiens (human) FL cells assessed as cell viability at 10^-4 M after 72 hr by trypan blue exclusion assay relative to control; format: cell-based; conditions: read-out: Activity
[11] = Cytotoxicity against Homo sapiens (human) FL cells assessed as cell viability at 10^-4 M after 24 hr by trypan blue exclusion assay relative to control; format: cell-based; conditions: read-out: Activity
[12] = Cytotoxicity against Homo sapiens (human) FL cells assessed as cell viability at 10^-4 M after 48 hr by trypan blue exclusion assay relative to control; format: cell-based; conditions: read-out: Activity

CCOC(=O)N1c2ccccc2N(C(=O)OCC)C1CC(=O)c1ccc(O)cc1 gave a viability at 100 µM (RD [1]) of 5.71%, a viability at 100 µM (RD [2]) of 3.57% and a viability at 100 µM (RD [3]) of 13.6%. It also gave a viability at 100 µM (A2058 [4]) of 6.12%, a viability at 100 µM (A2058 [5]) of 9.3% and a viability at 100 µM (A2058 [6]) of 12.1%. The viability at 100 µM (A2058 [7]) was 35.3%, the viability at 96 h, 100 µM [8] was 4.55% and the viability at 100 µM (RD [9]) was 27.3%. For the same molecule, the viability at 72 h, 100 µM [10] was 7.27%, the viability at 24 h, 100 µM [11] was 29.7% and the viability at 48 h, 100 µM [12] was 11.7%.
In the case of CCOC(=O)N1c2ccccc2N(C(=O)OCC)C1CC(C)=O, the viability at 100 µM (RD [1]) is reported as 0%, the viability at 100 µM (RD [2]) is reported as 0% and the viability at 100 µM (RD [3]) is reported as 0%. It also gave a viability at 100 µM (A2058 [4]) of 0%, a viability at 100 µM (A2058 [5]) of 0% and a viability at 100 µM (A2058 [6]) of 0%. For the same molecule, the viability at 100 µM (A2058 [7]) was 0%, the viability at 96 h, 100 µM [8] was 0% and the viability at 100 µM (RD [9]) was 0%. The viability at 72 h, 100 µM [10] was 0%, the viability at 24 h, 100 µM [11] was 0% and the viability at 48 h, 100 µM [12] was 0%.
In the case of CCOC(=O)N1c2cc(C)c(C)cc2N(C(=O)OCC)C1CC(=O)/C=C/c1ccccc1, the viability at 100 µM (RD [1]) is reported as 81.4%, the viability at 100 µM (RD [2]) is reported as 79.8% and the viability at 100 µM (RD [3]) is reported as 70.5%. The viability at 100 µM (A2058 [4]) was 75.5%, the viability at 100 µM (A2058 [5]) was 80.2% and the viability at 100 µM (A2058 [6]) was 86.4%. For the same molecule, the viability at 100 µM (A2058 [7]) was 82.3%, the viability at 96 h, 100 µM [8] was 74.2% and the viability at 100 µM (RD [9]) was 86.4%. For the same molecule, the viability at 72 h, 100 µM [10] was 60%, the viability at 24 h, 100 µM [11] was 94.6% and the viability at 48 h, 100 µM [12] was 67.5%.
Molecule CCOC(=O)N1c2ccccc2N(C(=O)OCC)C1CC(=O)Cc1ccccc1 has a viability at 100 µM (RD [1]) of 14.3%, a viability at 100 µM (RD [2]) of 11.9% and a viability at 100 µM (RD [3]) of 31.8%. For the same molecule, the viability at 100 µM (A2058 [4]) was 6.12%, the viability at 100 µM (A2058 [5]) was 11.6% and the viability at 100 µM (A2058 [6]) was 21.2%. It also gave a viability at 100 µM (A2058 [7]) of 41.2%, a viability at 96 h, 100 µM [8] of 3.03% and a viability at 100 µM (RD [9]) of 63.6%. For the same molecule, the viability at 72 h, 100 µM [10] was 5.45%, the viability at 24 h, 100 µM [11] was 27% and the viability at 48 h, 100 µM [12] was 10.4%.
CCOC(=O)N1c2cc(C)c(C)cc2N(C(=O)OCC)C1CC(=O)c1ccc(OC)cc1 showed a viability at 100 µM (RD [1]) of 58.6%, a viability at 100 µM (RD [2]) of 57.1% and a viability at 100 µM (RD [3]) of 43.2%. The viability at 100 µM (A2058 [4]) was 33.7%, the viability at 100 µM (A2058 [5]) was 38.4% and the viability at 100 µM (A2058 [6]) was 54.5%. It also gave a viability at 100 µM (A2058 [7]) of 55.9%, a viability at 96 h, 100 µM [8] of 65.9% and a viability at 100 µM (RD [9]) of 31.2%. For the same molecule, the viability at 72 h, 100 µM [10] was 63.6%, the viability at 24 h, 100 µM [11] was 75.7% and the viability at 48 h, 100 µM [12] was 49.4%.
In the case of CCOC(=O)N1c2ccccc2N(C(=O)OCC)C1CC(=O)c1ccccc1, the viability at 100 µM (RD [1]) is reported as 92.9%, the viability at 100 µM (RD [2]) is reported as 88.1% and the viability at 100 µM (RD [3]) is reported as 93.2%. The viability at 100 µM (A2058 [4]) was 65.3%, the viability at 100 µM (A2058 [5]) was 53.5% and the viability at 100 µM (A2058 [6]) was 106%. The viability at 100 µM (A2058 [7]) was 94.1%, the viability at 96 h, 100 µM [8] was 77.3% and the viability at 100 µM (RD [9]) was 86.4%. It also gave a viability at 72 h, 100 µM [10] of 74.5%, a viability at 24 h, 100 µM [11] of 75.7% and a viability at 48 h, 100 µM [12] of 83.1%.
CCOC(=O)N1c2ccccc2N(C(=O)OCC)C1CC(=O)/C=C/c1ccccc1 showed a viability at 100 µM (RD [1]) of 52.9%, a viability at 100 µM (RD [2]) of 39.4% and a viability at 100 µM (RD [3]) of 59.1%. It also gave a viability at 100 µM (A2058 [4]) of 7.14%, a viability at 100 µM (A2058 [5]) of 8.14% and a viability at 100 µM (A2058 [6]) of 12.1%. It also gave a viability at 100 µM (A2058 [7]) of 14.7%, a viability at 96 h, 100 µM [8] of 81.1% and a viability at 100 µM (RD [9]) of 45.5%. For the same molecule, the viability at 72 h, 100 µM [10] was 83.6%, the viability at 24 h, 100 µM [11] was 111% and the viability at 48 h, 100 µM [12] was 77.9%.
CCOC(=O)N1c2cc(C)c(C)cc2N(C(=O)OCC)C1CC(=O)c1ccccc1 showed a viability at 100 µM (RD [1]) of 47.1%, a viability at 100 µM (RD [2]) of 32.1% and a viability at 100 µM (RD [3]) of 52.3%. For the same molecule, the viability at 100 µM (A2058 [4]) was 31.6%, the viability at 100 µM (A2058 [5]) was 50% and the viability at 100 µM (A2058 [6]) was 83.3%. For the same molecule, the viability at 100 µM (A2058 [7]) was 97.1%, the viability at 96 h, 100 µM [8] was 62.1% and the viability at 100 µM (RD [9]) was 45.5%. It also gave a viability at 72 h, 100 µM [10] of 60%, a viability at 24 h, 100 µM [11] of 67.6% and a viability at 48 h, 100 µM [12] of 46.8%.
CCOC(=O)N1c2cc(C)c(C)cc2N(C(=O)OCC)C1CC(C)=O gave a viability at 100 µM (RD [1]) of 24.3%, a viability at 100 µM (RD [2]) of 17.9% and a viability at 100 µM (RD [3]) of 40.9%. For the same molecule, the viability at 100 µM (A2058 [4]) was 70.4%, the viability at 100 µM (A2058 [5]) was 69.8% and the viability at 100 µM (A2058 [6]) was 57.6%. It also gave a viability at 100 µM (A2058 [7]) of 82.3%, a viability at 96 h, 100 µM [8] of 39.4% and a viability at 100 µM (RD [9]) of 31.2%. For the same molecule, the viability at 72 h, 100 µM [10] was 15.4%, the viability at 24 h, 100 µM [11] was 111% and the viability at 48 h, 100 µM [12] was 31.2%.
